32 molecules from ChEMBL document CHEMBL2176953, “Synthesis and evaluation of α-thymidine analogues as novel antimalarials” (J Med Chem, 2012) can be followed below.

Data set [1] relates to Plasmodium falciparum. Briefly: Antimalarial activity against erythrocytic stages of Plasmodium falciparum 3D7 infected in human O positive RBC after 48 hrs by SYBR-green assay. In kind it is functional, organism-based. To be noted: 3D7, 48 h.
The test system of data set [2] is MRC5. The experiment in a line: Cytotoxicity against human MRC5 cells. The data set is classed as cell-based.
For data set [3], the target named is T1, Thymidylate kinase (Plasmodium falciparum (isolate 3D7), UniProt Q8I4S1).
T1 sequence (Q8I4S1 whole entry): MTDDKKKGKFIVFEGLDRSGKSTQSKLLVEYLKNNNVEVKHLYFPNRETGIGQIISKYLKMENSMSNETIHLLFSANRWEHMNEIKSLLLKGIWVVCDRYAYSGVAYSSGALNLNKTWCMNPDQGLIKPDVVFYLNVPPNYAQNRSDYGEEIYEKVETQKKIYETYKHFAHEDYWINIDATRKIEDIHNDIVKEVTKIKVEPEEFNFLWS
Briefly: Inhibition of recombinant Plasmodium falciparum TMPK using TMP as substrate by pyruvate kinase and lactate dehydrogenase enzyme coupled assay.

The nature of data set [4]: Plasma protein binding in CD1 mouse after 5 hrs.

Each structure is given as a SMILES string.

By EC50 is commonly meant the concentration needed to bring the measured effect to its halfway point. For orientation: CC50 means the concentration at which the toxic effect on the cells reaches its halfway point. Low readings indicate greater toxicity to the cells, high ones lower toxicity to the cells. The Ki is the equilibrium dissociation constant of an inhibitor or competing ligand from its target. Broadly, the fraction unbound is the share of the substance not bound to proteins or other matrix.

Turning to `Cc1cn([C@@H]2C[C@H](O)[C@@H](CNC(=O)Nc3ccccc3COc3ccccc3)O2)c(=O)[nH]c1=O`, the 50% effective concentration (EC50) in data set [1] came to 7.2 µM. For the same molecule, the CC50 in data set [2] was above 50 µM.

Consider `Cc1cn([C@@H]2C[C@H](O)[C@@H](CNC(=S)Nc3ccc(Cl)c(C(F)(F)F)c3)O2)c(=O)[nH]c1=O`, for which the Ki in data set [3] was determined as 31 µM. In addition, the 50% effective concentration (EC50) in data set [1] is 2.3 µM. Moreover, in data set [2], the CC50 was above 50 µM.

In turn, `Cc1cn([C@@H]2C[C@H](O)[C@@H](CNC(=O)Nc3ccc(OCc4cccc(Cl)c4)cc3)O2)c(=O)[nH]c1=O` had an EC50 in data set [1] of 0.24 µM. Moreover, the CC50 in data set [2] is above 50 µM.

As to `Cc1cn([C@@H]2C[C@H](O)[C@@H](CNC(=O)Nc3ccc(Cl)cc3)O2)c(=O)[nH]c1=O`, the Ki in data set [3] came out at 114 µM. The response in data set [1] was half-maximal at 2.6 µM (EC50). In data set [2], this molecule gave a half-maximal cytotoxic concentration (CC50) above 50 µM.

The molecule `Cc1cn([C@@H]2C[C@H](O)[C@@H](CNC(=O)Nc3ccc(Cc4ccccc4)cc3)O2)c(=O)[nH]c1=O` had an EC50 in data set [1] of 1.5 µM. The CC50 in data set [2] is above 50 µM.

Turning to `Cc1cn([C@H]2C[C@H](O)[C@@H](CNC(=O)Nc3ccc(OCc4ccccc4Cl)cc3)O2)c(=O)[nH]c1=O`, the midpoint of the response in data set [1], the EC50, lay at 0.41 µM. Further, the CC50 in data set [2] is above 50 µM.

`Cc1cn([C@@H]2C[C@H](O)[C@@H](CNC(=O)Nc3ccc(-c4ccccc4)cc3)O2)c(=O)[nH]c1=O` gave an EC50 in data set [1] of 0.29 µM. The same molecule had a fraction unbound at 5 h in data set [4] of 0.08.

Turning to `COc1ccc(COc2ccc(NC(=O)NC[C@H]3O[C@@H](n4cc(C)c(=O)[nH]c4=O)C[C@@H]3O)cc2)cc1`, in data set [1], it took 3.8 µM to reach a half-maximal effect (EC50). The CC50 in data set [2] was above 50 µM.

As for `Cc1cn([C@@H]2C[C@H](O)[C@@H](CNC(=O)Nc3ccc(OCc4ccc(Cl)cc4)cc3)O2)c(=O)[nH]c1=O`, in data set [1], the 50% effective concentration (EC50) was 0.88 µM. This molecule also registered a CC50 in data set [2] above 50 µM.

`Cc1cn([C@H]2C[C@H](O)[C@@H](CNC(=O)Nc3ccc(OCc4ccccc4)cc3)O2)c(=O)[nH]c1=O` had an EC50 in data set [1] of 4 µM. In data set [2], this molecule displayed a 50% cytotoxic concentration (CC50) above 50 µM.

With `Cc1cn([C@@H]2C[C@H](O)[C@@H](CNC(=O)Nc3ccc(-c4ccc(C(F)(F)F)nc4)cc3)O2)c(=O)[nH]c1=O`, the concentration for a half-maximal effect (EC50) in data set [1] came out at 1.4 µM. The molecule also yielded a CC50 in data set [2] above 50 µM.

In data set [1], `Cc1cn([C@@H]2C[C@H](O)[C@@H](CNC(=S)Nc3ccc(OCc4ccccc4)cc3)O2)c(=O)[nH]c1=O` registered an EC50 of 9.5 µM. Also, the CC50 in data set [2] was above 50 µM.

Molecule `Cc1cn([C@@H]2C[C@H](O)[C@@H](CNC(=O)Nc3ccc(N4CCCCC4)cc3)O2)c(=O)[nH]c1=O` registered an EC50 in data set [1] of 0.34 µM. For the same molecule, the fraction unbound at 5 h in data set [4] was 0.477.

Consider `Cc1cn([C@@H]2C[C@H](O)[C@@H](CNC(=O)Nc3ccc(OC4CCOCC4)cc3)O2)c(=O)[nH]c1=O`, for which the EC50 in data set [1] came to 1.3 µM. The molecule also registered a CC50 in data set [2] above 50 µM.

Take `Cc1cn([C@@H]2C[C@H](O)[C@@H](CNC(=O)Nc3cccc(Cl)c3)O2)c(=O)[nH]c1=O`: in data set [3], the Ki amounted to 106 µM. Also, the EC50 in data set [1] stood at 4.8 µM. The molecule also displayed a CC50 in data set [2] above 50 µM.

In the case of `Cc1cn([C@@H]2C[C@H](O)[C@@H](CNC(=O)Nc3ccc(Cl)c(C(F)(F)F)c3)O2)c(=O)[nH]c1=O`, the Ki in data set [3] came to 88 µM. In addition, in data set [1], the EC50 is 9 µM. In addition, the CC50 in data set [2] is above 50 µM.

In turn, `COc1ccc(NC(=O)NC[C@H]2O[C@H](n3cc(C)c(=O)[nH]c3=O)C[C@@H]2O)cc1` registered an EC50 in data set [1] of 2.5 µM. The CC50 in data set [2] is above 50 µM.

In turn, `Cc1cn([C@H]2C[C@H](O)[C@@H](CNC(=O)Nc3ccc(N4CCCCC4)cc3)O2)c(=O)[nH]c1=O` had an EC50 in data set [1] of 4.8 µM. Further, the CC50 in data set [2] was above 50 µM.

`Cc1cn([C@H]2C[C@H](O)[C@@H](CNC(=O)Nc3ccc(-c4ccccc4)cc3)O2)c(=O)[nH]c1=O` displayed an EC50 in data set [1] of 3.3 µM. This molecule returned a CC50 in data set [2] above 50 µM.

As to `Cc1cn([C@@H]2C[C@H](O)[C@@H](CNC(=O)Nc3ccc(Br)cc3)O2)c(=O)[nH]c1=O`, in data set [3], the Ki is above 1000 µM. For the same molecule, in data set [1], the EC50 came out at 1.5 µM. The same molecule registered a CC50 in data set [2] above 50 µM.

As for `Cc1cn([C@@H]2C[C@H](O)[C@@H](CNC(=O)Nc3cccc(COc4ccccc4)c3)O2)c(=O)[nH]c1=O`, in data set [1], it took 1.8 µM to reach a half-maximal effect (EC50). This molecule gave a CC50 in data set [2] above 50 µM.

The molecule `Cc1ccc2nc(-c3ccc(NC(=O)NC[C@H]4O[C@H](n5cc(C)c(=O)[nH]c5=O)C[C@@H]4O)cc3)sc2c1` came in with an EC50 in data set [1] of 4.6 µM. This molecule showed a half-maximal cytotoxic concentration (CC50) in data set [2] above 50 µM.

In data set [1], `Cc1cn([C@@H]2C[C@H](O)[C@@H](CNC(=O)Nc3ccc(Oc4ccccc4)cc3)O2)c(=O)[nH]c1=O` gave an EC50 of 0.24 µM. The midpoint of cytotoxicity in data set [2], the CC50, lay at 44 µM. In data set [4], this molecule had a fraction unbound at 5 h of 0.095.

As for `Cc1cn([C@@H]2C[C@H](O)[C@@H](CNC(=O)Nc3ccc(OCc4ccccc4Cl)cc3)O2)c(=O)[nH]c1=O`, the EC50 in data set [1] came to 0.028 µM. The molecule further returned a CC50 in data set [2] of 29 µM. The molecule further gave a fraction unbound at 5 h in data set [4] of 0.059.

`Cc1cn([C@@H]2C[C@H](O)[C@@H](CNC(=O)Nc3ccc(C(C)(C)C)cc3)O2)c(=O)[nH]c1=O`: the Ki in data set [3] is 167 µM. Moreover, in data set [1], it took 2.9 µM to reach a half-maximal effect (EC50). Also, the CC50 in data set [2] is above 50 µM.

In data set [1], `Cc1cn([C@@H]2C[C@H](O)[C@@H](CNC(=O)Nc3ccc(OCc4ccccc4)cc3)O2)c(=O)[nH]c1=O` displayed an EC50 of 0.24 µM. Further, the fraction unbound at 5 h in data set [4] is 0.188.

Take `Cc1cn([C@@H]2C[C@H](O)[C@@H](CNC(=S)Nc3ccc(Cl)cc3)O2)c(=O)[nH]c1=O`: the Ki in data set [3] amounted to 90 µM. Moreover, in data set [1], the midpoint of the response, the EC50, lay at 13 µM. This molecule also registered a CC50 in data set [2] above 50 µM.

Consider `Cc1cn([C@@H]2C[C@H](O)[C@@H](CNC(=O)c3ccc4ccccc4c3)O2)c(=O)[nH]c1=O`, for which, in data set [3], the inhibition constant (Ki) was determined as 541 µM. The molecule also returned an EC50 in data set [1] above 100 µM.

On to `Cc1cn([C@@H]2C[C@H](O)[C@@H](CNC(=O)Nc3ccccc3)O2)c(=O)[nH]c1=O`, for which the inhibitory constant (Ki) in data set [3] was determined as 166 µM. In addition, the EC50 in data set [1] amounted to 23 µM.

Consider `Cc1cn([C@H]2C[C@H](O)[C@@H](CNS(=O)(=O)c3ccc4ccccc4c3)O2)c(=O)[nH]c1=O`, for which the Ki in data set [3] is above 1000 µM. This molecule came in with an EC50 in data set [1] above 100 µM.

For the molecule `Cc1cn([C@@H]2C[C@H](O)[C@@H](CNC(=O)Nc3ccc(OCc4ccc(C(C)(C)C)cc4)cc3)O2)c(=O)[nH]c1=O`, in data set [1], the half-maximal effective concentration (EC50) was determined as 1.8 µM. This molecule also returned a CC50 in data set [2] above 50 µM.

Consider `CCOC(=O)CCNC(=O)NC[C@H]1O[C@H](n2cc(C)c(=O)[nH]c2=O)C[C@@H]1O`, for which the Ki in data set [3] was above 1000 µM. Moreover, the EC50 in data set [1] was above 100 µM.
